What all share (experiment): NCI tumour cell line growth inhibition, 48 h
Experiment [1] deals with LOX IMVI melanoma.
In experiment [2] the test system is OVCAR-8 ovarian.
The test system of experiment [3] is SK-MEL-5 melanoma.
Experiment [4] has as its system SN12C renal.
In experiment [5] the test system is SNB-75 CNS.
For experiment [6], the system named is UACC-257 melanoma.
For experiment [7], the system named is HCC-2998 colon.
Experiment [8] deals with HL-60(TB) leukemia.
Experiment [9] has as its system MOLT-4 leukemia.
The subject of experiment [10] is RPMI-8226 leukemia.

Each structure is given as a SMILES string.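 Protocol summary: plate cells (96-well), add compound at 5 concentrations, incubate 48 h, interpolate endpoints linearly. GI50 = concentration required for 50% inhibition of growth. TGI: total growth inhibition.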

For `CSc1nnc(COc2ccc(Cl)cc2)o1`, the TGI in experiment [1], in experiment [2], in experiment [3], in experiment [4], in [5] and in [6] was more than 100 µM throughout.
For the compound `CCCCn1c(-c2ccc(C(=O)O/N=C(\N)c3ccc4c(c3)OCO4)cc2)nc(-c2ccccc2)c1-c1ccccc1`, the GI50 was 3.13 µM in experiment [7]; 0.603 µM in [8]; 0.185 µM in experiment [1]; 3.37 µM in experiment [2]; 1.98 µM in experiment [3]; 1.8 µM in experiment [4]. Besides, the GI50 in [5] is 1.53 µM; in experiment [6] it was 6.43 µM. Also, the TGI is 22.5 µM in [7]; 2.75 µM in experiment [8]; 0.379 µM in experiment [1]; more than 100 µM in experiment [2]; 4.54 µM in [3]; 3.7 µM in experiment [4]. Besides, the figures for the TGI in [5] and in [6] were 3.88 µM and more than 100 µM, respectively.
As for `CCNC(=O)COc1ccc(Cl)cc1Cl`, the TGI in [8], in [9], in experiment [2], in [10], in [3] and in experiment [4] was more than 100 µM each time. Also, the TGI in experiment [5] and in [6] was more than 100 µM in each case.
As for `N/N=C1\C(=O)N(CCc2ccccc2)C(=O)C1C(=O)NCCc1ccccc1` (stereo not drawn), the TGI in [8], in experiment [1], in experiment [9], in experiment [10], in experiment [4] and in experiment [5] was more than 100 µM throughout. This compound showed a TGI in experiment [6] of more than 100 µM.
In the case of `Cc1c(C(=O)O)oc2ccc([N+](=O)[O-])cc12`, the TGI in experiment [7], in experiment [8], in [1], in experiment [2], in [3] and in [4] was more than 100 µM throughout. In experiment [6], this compound gave a TGI of more than 100 µM.
On to `CC(C)(Oc1ccc(/C=C/C(=O)c2ccc(Cl)cc2)cc1)C(=O)Nc1c(Cl)cccc1Cl`, for which the TGI is 51.5 µM in experiment [7]; 31 µM in experiment [1]; 96.5 µM in experiment [9]; 30.5 µM in experiment [2]; 37 µM in experiment [3]; 34.8 µM in experiment [4]. Besides, the values for the TGI in experiment [5] and in [6] were 97.5 µM and 99.6 µM, respectively.
On to `O=C(O)c1ccccc1/C=N/N=C1c2ccccc2-c2ccccc21`, for which the TGI in [8] was 80.8 µM; in [1], more than 100 µM; in [9], 71 µM; in experiment [2], more than 100 µM; in experiment [10], 48.2 µM; in experiment [3] it was more than 100 µM. The TGI in experiment [4] and in [6] was more than 100 µM each time.
`c1c[nH]c(CN2CCOCC2)n1`: the TGI in [8], in [1], in experiment [9], in experiment [2], in experiment [10] and in experiment [3] was more than 100 µM throughout. For the same compound, the TGI in experiment [4], in experiment [5] and in [6] was more than 100 µM each time.
As to `C[C@H]1CCCC(O)C(O)[C@@H]2C[C@H](O[Si](C)(C)C(C)(C)C)C[C@H]2[C@H](O[Si](C)(C)C(C)(C)C)C(O)C(O)C(=O)O1` (stereo partly drawn), the GI50 in experiment [7] was 17.5 µM; in experiment [9] it was 66 µM; in [2] it was 13.5 µM; in experiment [10], more than 100 µM; in experiment [3], 45.4 µM; in experiment [4], 34.6 µM. In addition, the GI50 in [5] is 4.3 µM; in [6], 35.2 µM. The TGI in experiment [7] was 50.3 µM; in experiment [9], more than 100 µM; in [2] it was 37.3 µM; in experiment [10], more than 100 µM; in experiment [3] it was more than 100 µM; in [4] it was more than 100 µM. The values for the TGI in [5] and in experiment [6] were 18.1 µM and more than 100 µM, respectively.
For the compound `COc1ccc(C(=O)NCCN(C)C)c2nc3ccccc3nc12`, the TGI was 26.3 µM in experiment [7]; 6.48 µM in [1]; 7.3 µM in [9]; more than 41.5 µM in experiment [2]; more than 100 µM in experiment [10]; more than 36.6 µM in experiment [3]. The TGI turned out to be 80.1 µM in experiment [4], 78 µM in experiment [5] and 13 µM in experiment [6].
Consider `CC(=O)c1ccc(O)c(CN(C2CCCCC2)C2CCCCC2)c1O`, for which the TGI in experiment [1], in experiment [9], in experiment [2], in experiment [10], in [3] and in experiment [4] was more than 100 µM in each case. In addition, the TGI in experiment [5] and in [6] was more than 100 µM throughout.
With `COc1ccc2[nH]c3c(c2c1)[C@H](C)C[C@@H]1C(=O)N(c2ccccc2)C(=O)[C@H]31`, the TGI in [7] was more than 100 µM; in experiment [8] it was more than 100 µM; in experiment [1] it was more than 100 µM; in experiment [9] it was 56.6 µM; in [2], 37.8 µM; in experiment [3] it was more than 100 µM. The TGI in experiment [4] was 58.6 µM; in experiment [5], 48.1 µM; in experiment [6], more than 100 µM.
Regarding `C[N+](C)(C)CC1CCCCC1O` (stereo not drawn), the TGI in [7], in [1], in experiment [9], in experiment [2], in experiment [10] and in [3] was more than 100 µM throughout. The TGI in experiment [4], in [5] and in [6] was more than 100 µM throughout.
Regarding `CCOC(=O)NC(=O)c1cn(CCN2CCN(C(=O)CCCCCCCCCCC(=O)N3CCN(CCn4cc(C(=O)NC(=O)OCC)c(=O)[nH]c4=O)CC3)CC2)c(=O)[nH]c1=O`, the TGI in [7], in [1], in [9], in experiment [2], in experiment [10] and in experiment [3] was more than 100 µM throughout. Moreover, the TGI in experiment [4], in experiment [5] and in experiment [6] was more than 100 µM each time.
In the case of `COC(=O)C1(C(=O)OC)CC(=O)c2cc3c(cc2-c2c(cc(OC)c(OC)c2OC)C1)OCO3`, the TGI in experiment [7], in experiment [8], in [1], in experiment [9], in [2] and in [3] was more than 211 µM throughout. Also, the TGI in [4] and in experiment [6] was more than 211 µM in each case.
Take `N#Cc1ccc(NC(=O)C(CC(=O)OCc2ccccc2)NC(=O)OCc2ccccc2)cc1` (stereo not drawn): the TGI in [7], in experiment [1], in experiment [9], in experiment [2], in experiment [10] and in experiment [3] was more than 100 µM each time. Moreover, the TGI in experiment [4], in experiment [5] and in experiment [6] was more than 100 µM each time. In addition, the GI50 in experiment [1], in [9], in experiment [2], in experiment [10], in experiment [4] and in experiment [5] was more than 100 µM in each case. Besides, the GI50 in experiment [6] is more than 100 µM.
`N#CNC(N)=Nc1ccc(Cl)cc1`: the TGI in experiment [7], in experiment [1], in experiment [9], in experiment [2], in experiment [10] and in [3] was more than 100 µM each time. Moreover, the TGI in experiment [4], in experiment [5] and in [6] was more than 100 µM throughout.
For `Cc1ccc(NC(=O)c2cc(S(=O)(=O)N3C(=O)NC(=O)NS3(=O)=O)c(S)cc2Cl)cc1`, the GI50 in experiment [7] was 28.5 µM; in [1], 20.7 µM; in experiment [9], 15.3 µM; in experiment [2], 30.7 µM; in experiment [10], 22 µM; in [3], 15.4 µM. Moreover, the values for the GI50 in [4], in experiment [5] and in experiment [6] were 31.2 µM, 91.6 µM and 17.2 µM, respectively. Besides, the TGI in experiment [7] was 60.5 µM; in experiment [1] it was 56.1 µM; in [9], 44 µM; in experiment [2] it was 90.6 µM; in experiment [10] it was 73.6 µM; in experiment [3], 32 µM. Besides, the TGI in experiment [4] is more than 100 µM; in experiment [5] it was more than 100 µM; in experiment [6], 46.8 µM.
For the compound `Cn1c2c(c3ccccc31)CCN(CCN1CCN(c3cccc(Cl)c3)CC1)C2=O`, the TGI in experiment [8] is 65.3 µM; in experiment [1] it was more than 100 µM; in experiment [9], more than 100 µM; in experiment [2], more than 100 µM; in experiment [10], more than 100 µM; in experiment [3] it was 62.6 µM. Besides, the TGI in experiment [4] was more than 100 µM.
Consider `NC(=S)NN/C=C(\C=Nc1ccccc1)[N+](=O)[O-]`, for which the TGI in experiment [8], in [1], in [2], in [10], in [4] and in experiment [5] was more than 100 µM throughout. Moreover, the TGI in experiment [6] was more than 100 µM.
As to `C/C(=N/NC(=O)C[N+](C)(C)C)C(CN(C)C)C(=O)Nc1ccccc1` (stereo not drawn), the TGI in [7], in experiment [8], in experiment [1], in experiment [9], in experiment [2] and in experiment [3] was more than 100 µM each time. Moreover, the TGI in experiment [4], in experiment [5] and in experiment [6] was more than 100 µM throughout.
Regarding `C/C(=N\NC(=O)CC#N)c1c(O)cc(C)oc1=O`, the TGI in [7], in experiment [8], in experiment [1], in experiment [9], in experiment [2] and in [3] was more than 100 µM each time. Besides, the TGI in experiment [4], in [5] and in [6] was more than 100 µM in each case.
Turning to `CN(C)C(=S)/N=c1\ssc(=S)n1Cc1ccncc1`, the TGI was 57.3 µM in experiment [7]; 39.9 µM in experiment [1]; 49.3 µM in experiment [9]; 68.9 µM in experiment [2]; 17.4 µM in experiment [3]; more than 100 µM in [4]. Further, the TGI in experiment [5] came out at 58.5 µM; in experiment [6] it was 83.5 µM.
For `CC(=O)OCC1OC(N2C(=O)C(=O)c3ccccc32)C(OC(C)=O)C(OC(C)=O)C1OC(C)=O` (stereo not drawn), the TGI in experiment [7], in experiment [1], in experiment [9], in experiment [2], in [10] and in [3] was more than 100 µM throughout. Besides, the TGI in [4], in experiment [5] and in [6] was more than 100 µM in each case.
With `CSC1=Nc2ccccc2N=C(c2ccc(Cl)cc2)C1`, the TGI in experiment [8] was more than 100 µM; in [1] it was 72.1 µM; in experiment [9], 67.4 µM; in experiment [2] it was more than 100 µM; in experiment [10], more than 100 µM; in [3], 51.3 µM. The TGI in experiment [4] was more than 100 µM; in experiment [6], 84.9 µM.
For `COc1cc2c(cc1OC)C(C(=O)c1cccc(OC)c1OC)C(=O)N(C)CC2` (stereo not drawn), the TGI in experiment [8], in [1], in [9], in experiment [2], in [10] and in [3] was more than 100 µM throughout. The TGI in experiment [4], in [5] and in experiment [6] was more than 100 µM throughout.
For the compound `CC(C)CCC1(CCN)C(=O)NC(=O)NC1=O`, the TGI is 66.7 µM in [8]; more than 100 µM in experiment [1]; 72.2 µM in experiment [9]; more than 100 µM in experiment [2]; more than 100 µM in experiment [10]; more than 100 µM in experiment [3]. The TGI in experiment [4], in experiment [5] and in experiment [6] was more than 100 µM throughout.
`COC(=O)C(/C(=N\O)C(=O)Nc1cccc(Cl)c1C)c1cnc2ccccc2n1` (stereo not drawn): the TGI in [7], in [1], in experiment [9], in [2], in experiment [3] and in experiment [4] was more than 100 µM throughout. Also, the TGI in experiment [5] and in [6] was more than 100 µM each time.

Values taken from PubChem BioAssay (NCI).
